Assay results reported in ChEMBL document CHEMBL1137975, “DNA binding ligands with in vivo efficacy in murine models of bacterial infection: optimization of internal aromatic amino acids” (2004).
Converted amounts (≈) assume the structure as drawn.

Key:
[1] = Minimum inhibitory concentration in mice against antimicrobial activity in […] (PISP 49619).; assay type: functional; settings: Streptococcus pneumoniae
Staphylococcus aureus = assay: Minimum inhibitory concentration in mice against antimicrobial activity in methicillin-resistant Staphylococcus aureus(MRSA 27660).; assay type: functional
Enterococcus faecalis = assay: Minimum inhibitory concentration in mice against antimicrobial activity in vancomycin-sensitive Enterococcus faecalis (VSEF 29212).
Mus musculus [2] = species: Mus musculus; assay: Minimum inhibitory concentration was evaluated in mice against antimicrobial activity in methicillin-resistant Staphylococcus aureus(MRSA 27660); 0.06-0.13; assay type: functional
Mus musculus [3] = species: Mus musculus; assay: Minimum inhibitory concentration was evaluated in mice against antimicrobial activity in […] (PISP 49619); 0.03-0.06; assay type: functional
Mus musculus [4] = species: Mus musculus; assay: Minimum inhibitory concentration was evaluated in mice against antimicrobial activity in methicillin-resistant Staphylococcus aureus(MRSA 27660); 1-2; assay type: functional
Mus musculus [5] = species: Mus musculus; assay: Minimum inhibitory concentration was evaluated in mice against antimicrobial activity in […] (PISP 49619); 0.13-0.25; assay type: functional
Mus musculus [6] = species: Mus musculus; assay: Minimum inhibitory concentration was evaluated in mice against antimicrobial activity in […] (PISP 49619); 0.03-0.13; assay type: functional
Mus musculus [7] = species: Mus musculus; assay: Minimum inhibitory concentration was evaluated in mice against antimicrobial activity in […] Enterococcus faecalis (VSEF 29212); 0.13-1; assay type: functional
Mus musculus [8] = species: Mus musculus; assay: Minimum inhibitory concentration was evaluated in mice against antimicrobial activity in […] (PISP 49619); 1-32; assay type: functional
Mus musculus [9] = species: Mus musculus; assay: Minimum inhibitory concentration was evaluated in mice against antimicrobial activity in […] (PISP 49619); 0.5-2; assay type: functional
Mus musculus [10] = species: Mus musculus; assay: Minimum inhibitory concentration was evaluated in mice against antimicrobial activity in […] Enterococcus faecalis (VSEF 29212); 2-8; assay type: functional
Mus musculus [11] = species: Mus musculus; assay: Minimum inhibitory concentration was evaluated in mice against antimicrobial activity in […] (PISP 49619); 0.5-1; assay type: functional

Row | Compound | MIC [1] [µg/mL] | MIC (Staphylococcus aureus) [µg/mL] | MIC (Enterococcus faecalis) [µg/mL] | further results
1 | CC(=O)NCC1CN(c2ccc(N3CCOCC3)c(F)c2)C(=O)O1 (single isomer, unassigned) [LINEZOLID] | 1 (≈ 2.96 µM) |  |  | 
2 | Cn1cc(NC(=O)c2cc(NC(=O)c3cc(NC(=O)c4cc5ccccc5cn4)cn3C)nn2C)cc1C(=O)NCCN1CCOCC1 | 0.25 (≈ 0.383 µM) | 0.5 (≈ 0.766 µM) | 1 (≈ 1.53 µM) | 
3 | Cn1cc(NC(=O)c2cc(NC(=O)c3cc(NC(=O)c4cc5ccccc5cn4)on3)cn2C)cc1C(=O)NCCN1CCOCC1 | 0.13 (≈ 0.203 µM) | 0.06 (≈ 0.0938 µM) | 0.5 (≈ 0.782 µM) | 
4 | Cn1cc(NC(=O)c2ccc(NC(=O)c3cc(NC(=O)c4sc5ccccc5c4Cl)cn3C)cc2)cc1C(=O)NCCN1CCOCC1 | 0.25 (≈ 0.363 µM) | > 32 | 16 (≈ 23.2 µM) | 
5 | Cn1cc(NC(=O)c2cc(NC(=O)c3cc(NC(=O)c4cc5ccccc5cn4)cn3C)cs2)cc1C(=O)NCCN1CCOCC1 | 0.5 (≈ 0.764 µM) | 8 (≈ 12.2 µM) | > 32 | 
6 | Cn1cc(NC(=O)c2ccc(NC(=O)c3cc(NC(=O)c4sccc4Cl)cn3C)cc2)cc1C(=O)NCCN1CCOCC1 | 1 (≈ 1.57 µM) | 8 (≈ 12.5 µM) | 2 (≈ 3.13 µM) | 
7 | CN[C@H](CC(C)C)C(=O)N[C@H]1C(=O)N[C@@H](CC(N)=O)C(=O)N[C@H]2C(=O)N[C@H]3C(=O)N[C@H](C(=O)N[C@H](C(=O)O)c4cc(O)cc(O)c4-c4cc3ccc4O)[C@H](O)c3ccc(c(Cl)c3)Oc3cc2cc(c3O[C@@H]2O[C@H](CO)[C@@H](O)[C@H](O)[C@H]2O[C@H]2C[C@](C)(N)[C@H](O)[C@H](C)O2)Oc2ccc(cc2Cl)[C@H]1O [VANCOMYCIN] | 0.25 (≈ 0.173 µM) |  | 1 (≈ 0.69 µM) | 
8 | Cn1cc(NC(=O)c2sccc2Cl)cc1C(=O)Nc1cc(C(=O)Nc2ccc(C(=O)NCCN3CCOCC3)cc2)n(C)c1 | > 32 | > 32 | > 32 | 
9 | Cc1cnc(C(=O)Nc2cc(C(=O)Nc3ccc(C(=O)Nc4cc(C(=O)NCCN5CCOCC5)n(C)c4)cc3)n(C)c2)cn1 | 0.13 (≈ 0.212 µM) | 0.5 (≈ 0.815 µM) | 2 (≈ 3.26 µM) | 
10 | Cn1cc(NC(=O)c2sccc2Cl)cc1C(=O)Nc1cc(C(=O)Nc2c[nH]c(C(=O)NCCN3CCOCC3)c2)n(C)c1 | 8 (≈ 12.8 µM) | 16 (≈ 25.5 µM) | 32 (≈ 51 µM) | 
11 | Cn1cc(NC(=O)c2nc(NC(=O)c3cc(NC(=O)c4sccc4Cl)cn3C)cn2C)cc1C(=O)NCCN1CCOCC1 | 16 (≈ 24.9 µM) | > 32 | > 32 | 
12 | Cn1cc(NC(=O)c2ccc(NC(=O)c3cc(NC(=O)c4ccc(F)cc4F)cn3C)cc2)cc1C(=O)NCCN1CCOCC1 | 0.5 (≈ 0.789 µM) | 32 (≈ 50.5 µM) | 8 (≈ 12.6 µM) | 
13 | Cn1cc(NC(=O)c2sccc2Cl)cc1C(=O)Nc1cc(C(=O)Nc2cccc(C(=O)NCCN3CCOCC3)c2)n(C)c1 | 8 (≈ 12.5 µM) | 16 (≈ 25.1 µM) | 16 (≈ 25.1 µM) | 
14 | Cn1cc(NC(=O)c2ccc(NC(=O)c3cc(NC(=O)c4cc5ccccc5cn4)cn3C)cc2)cc1C(=O)NCCN1CCOCC1 |  |  |  | MIC (Mus musculus [2]): 0.13 µg/mL (≈ 0.2 µM); MIC (Mus musculus [3]): 0.06 µg/mL (≈ 0.0925 µM)
15 | Cn1cc(NC(=O)c2cc(NC(=O)c3cc(NC(=O)c4cc5ccccc5cn4)cn3C)cn2C)cc1C(=O)NCCN1CCOCC1 | 0.06 (≈ 0.0921 µM) | 0.5 (≈ 0.767 µM) | 0.25 (≈ 0.384 µM) | 
16 | Cn1cc(NC(=O)c2ccc(NC(=O)c3cc(NC(=O)c4ccncn4)cn3C)cc2)cc1C(=O)NCCN1CCOCC1 | 0.5 (≈ 0.834 µM) | > 32 | 32 (≈ 53.4 µM) | 
17 | CC(C)n1cc(NC(=O)c2cc(NC(=O)c3cc(NC(=O)c4sccc4Cl)cn3C)cn2C)cc1C(=O)NCCN1CCOCC1 | 0.25 (≈ 0.374 µM) | 1 (≈ 1.49 µM) | 1 (≈ 1.49 µM) | 
18 | Cn1cc(NC(=O)c2cc(NC(=O)c3cc(NC(=O)c4cc5ccccc5cn4)cs3)cn2C)cc1C(=O)NCCN1CCOCC1 |  |  |  | MIC (Mus musculus [4]): 2 µg/mL (≈ 3.05 µM); MIC (Mus musculus [5]): 0.25 µg/mL (≈ 0.382 µM)
19 | Cn1cc(NC(=O)c2sccc2Cl)cc1C(=O)Nc1cc(C(=O)Nc2cc(C(=O)NCCN3CCOCC3)n(C)n2)n(C)c1 | > 32 | > 32 | > 32 | 
20 | Cn1cc(NC(=O)c2cc(NC(=O)c3cc(NC(=O)c4sccc4Cl)c[nH]3)cn2C)cc1C(=O)NCCN1CCOCC1 | 2 (≈ 3.19 µM) | 8 (≈ 12.8 µM) | 2 (≈ 3.19 µM) | 

Row | Compound | MIC [1] [µg/mL] | MIC (Staphylococcus aureus) [µg/mL] | MIC (Enterococcus faecalis) [µg/mL] | further results
21 | Cn1cc(NC(=O)c2cc(NC(=O)c3nc(NC(=O)c4sccc4Cl)cn3C)cn2C)cc1C(=O)NCCN1CCOCC1 |  |  |  | MIC (Mus musculus [6]): 0.13 µg/mL (≈ 0.202 µM); MIC (Mus musculus [7]): 1 µg/mL (≈ 1.56 µM)
22 | Cn1cc(NC(=O)c2cc(NC(=O)c3cc(NC(=O)c4sccc4Cl)cn3C)nn2C)cc1C(=O)NCCN1CCOCC1 |  | 32 (≈ 49.8 µM) | > 32 | MIC (Mus musculus [8]): 32 µg/mL (≈ 49.8 µM)
23 | Cn1cc(NC(=O)c2cc(NC(=O)CCNC(=O)c3cc4ccccc4cn3)cn2C)cc1C(=O)NCCN1CCOCC1 | 8 (≈ 13.3 µM) | 32 (≈ 53.3 µM) | 16 (≈ 26.6 µM) | 
24 | Cn1cc(NC(=O)c2cc(NC(=O)c3cccc(NC(=O)c4sccc4Cl)c3)cn2C)cc1C(=O)NCCN1CCOCC1 | > 32 | > 32 | > 32 | 
25 | Cn1cc(NC(=O)c2ccc(NC(=O)c3cc(NC(=O)c4nccc5ccccc45)cn3C)cc2)cc1C(=O)NCCN1CCOCC1 | 0.25 (≈ 0.385 µM) | 1 (≈ 1.54 µM) | 2 (≈ 3.08 µM) | 
26 | Cn1cc(NC(=O)c2cccc(NC(=O)c3cc(NC(=O)c4sccc4Cl)cn3C)c2)cc1C(=O)NCCN1CCOCC1 | > 32 | > 32 | > 32 | 
27 | Cn1cc(NC(=O)c2cc(NC(=O)c3cc(NC(=O)c4sccc4Cl)nn3C)cn2C)cc1C(=O)NCCN1CCOCC1 | 0.25 (≈ 0.389 µM) | 8 (≈ 12.5 µM) | 8 (≈ 12.5 µM) | 
28 | Cn1cc(NC(=O)c2ccc(NC(=O)c3cc(NC(=O)c4cc5cc6c(cc5s4)OCO6)cn3C)cc2)cc1C(=O)NCCN1CCOCC1 | 0.5 (≈ 0.717 µM) | 32 (≈ 45.9 µM) | > 32 | 
29 | Cn1cc(NC(=O)c2cc(NC(=O)c3nc(NC(=O)c4cc5ccccc5cn4)cn3C)cn2C)cc1C(=O)NCCN1CCOCC1 | 0.25 (≈ 0.383 µM) | 1 (≈ 1.53 µM) | 1 (≈ 1.53 µM) | 
30 | Cn1cc(NC(=O)c2ccc(NC(=O)c3cc(NC(=O)c4ccccn4)cn3C)cc2)cc1C(=O)NCCN1CCOCC1 | 0.5 (≈ 0.835 µM) | > 32 | > 32 | 
31 | CC(C)n1cc(NC(=O)c2sccc2Cl)cc1C(=O)Nc1cc(C(=O)Nc2cc(C(=O)NCCN3CCOCC3)n(C)c2)n(C)c1 | 2 (≈ 2.99 µM) | 4 (≈ 5.98 µM) | 4 (≈ 5.98 µM) | 
32 | Cn1cc(NC(=O)c2cc(NC(=O)c3cc(NC(=O)c4cc5ccccc5cn4)nn3C)cn2C)cc1C(=O)NCCN1CCOCC1 | 0.5 (≈ 0.766 µM) | 1 (≈ 1.53 µM) | 8 (≈ 12.3 µM) | 
33 | Cn1cc(NC(=O)c2ccc(NC(=O)c3cc(NC(=O)c4cc5cc6c(cc5cn4)OCO6)cn3C)cc2)cc1C(=O)NCCN1CCOCC1 | 0.5 (≈ 0.722 µM) | 0.06 (≈ 0.0866 µM) | 0.5 (≈ 0.722 µM) | 
34 | Cn1cc(NC(=O)c2cc(NC(=O)c3cc(NC(=O)c4sccc4Cl)cn3C)c[nH]2)cc1C(=O)NCCN1CCOCC1 |  | 8 (≈ 12.8 µM) |  | MIC (Mus musculus [9]): 2 µg/mL (≈ 3.19 µM); MIC (Mus musculus [10]): 8 µg/mL (≈ 12.8 µM)
35 | Cn1cc(NC(=O)c2sccc2Cl)cc1C(=O)Nc1cc(C(=O)Nc2cn(C)c(C(=O)NCCN3CCOCC3)n2)n(C)c1 | > 32 | > 32 | > 32 | 
36 | Cn1cc(NC(=O)c2cc(NC(=O)c3cc(NC(=O)c4cc5ccccc5cn4)c[nH]3)cn2C)cc1C(=O)NCCN1CCOCC1 |  |  | 0.5 (≈ 0.784 µM) | MIC (Mus musculus [4]): 2 µg/mL (≈ 3.14 µM); MIC (Mus musculus [11]): 1 µg/mL (≈ 1.57 µM)
37 | CC(C)n1cc(NC(=O)c2cc(NC(=O)c3sccc3Cl)cn2C)cc1C(=O)Nc1cc(C(=O)NCCN2CCOCC2)n(C)c1 | 0.5 (≈ 0.747 µM) | 1 (≈ 1.49 µM) | 1 (≈ 1.49 µM) | 
38 | Cn1cc(NC(=O)c2ccc(NC(=O)c3cc(NC(=O)c4cnc5ccccc5c4)cn3C)cc2)cc1C(=O)NCCN1CCOCC1 | 2 (≈ 3.08 µM) | > 32 | > 32 | 
39 | Cn1cc(NC(=O)c2cc(NC(=O)c3ccc(NC(=O)c4sccc4Cl)cc3)cn2C)cc1C(=O)NCCN1CCOCC1 | 32 (≈ 50.1 µM) | 32 (≈ 50.1 µM) | 16 (≈ 25.1 µM) | 
